Values of other authors as cited in patent US20050272698A1, “Liquid stable composition of oxazaphosphorine with mesna” (priority 2002, published 2005).

Row | SMILES | solubility in water
1 | O=P1(NCCCl)OCCCN1CCCl (centres unmarked) [Ifosfamide, 3-(2-chloroethyl)-2-[(2-chloroethyl)amino]tetrahydro-2H-1,3,2-oxazaphosphorin-2-oxide] | freely soluble in water
2 | O=S(=O)([O-])CCS.[Na+] [Mesna, sodium-2-mercaptoethanesulphonate] | highly water soluble
